For data set [1], the system named is HBV replication in HepDE19 cells. Kind of data set: Suppression of HBV replication in HepDE19 cells by synthetic gRNA/Cas9 RNPs, one-time transfection (ELISA, real-time PCR, RNAscope). It is filed as cell-based, Hepatitis B virus (HBV). The conditions noted are these: Tet-free medium 3 days; for HBV mRNA / HBV RNA level (RNAscope) / cccDNA level / pgRNA level / total HBV DNA level: HepDE19 cells, vs gRNAc; for cccDNA level: one-time transfection; for cccDNA level / pgRNA level / total HBV DNA level: real-time PCR; for HBeAg level / HBsAg level: HepDE19 supernatant, ELISA, vs scrambled gRNAc. The protocol: The HepDE19 cell line is tetracycline-controlled HBV stable cells maintained in the presence of 500 μg/ml G418 and 1 μg/ml tetracycline (Tet). Upon withdrawing Tet from the culture fluid of HepDE19 cells, pgRNA transcription, HBV DNA replication, cccDNA formation, and HBV e antigen (HBeAg) production gradually increase in a time-dependent manner. To induce HBV replication, the cells were cultured in a Tet-free medium for 0-10 days, followed by measuring the expression of HBV antigens, HBV cccDNA, and pgRNA using methods previously described. For cell transfection, HepDE19 cells were cultured in Tet-free medium for 2 days. The gRNA/Cas9 RNPs and Lipofectamine CRISPRMAX reagents were prepared in two separate tubes following the manufacturer's instructions. Briefly, 125 ng gRNA, 500 ng GeneArt Platinum Cas9 nuclease, and 1 μl Cas9 Plus reagents were mixed in one tube, and 1.5 μl Lipofectamine CRISPRMAX reagent was added in a separate tube. The gRNA/Cas9 RNP solution was then transferred to the tube containing the Lipofectamine CRISPRMAX solution. The mixture was vortexed and incubated at 25° C. for 10 min to form the gRNA/Cas9 RNP/Lipofectamine CRISPRMAX complex. Meanwhile, HepDE19 cells were seeded in a 24-well plate at 2.0×10^5 cells per well. The gRNA/Cas9 RNP/Lipofectamine CRISPRMAX complex was then added directly to the cell suspension, and the cells were incubated for 72 h, followed by assessing HBV replication with Tet-free medium as described above.
The levels of HBsAg and HBeAg in the supernatants of cell cultures were determined by ELISA (Cat #KA0286 and NBP2-600029, Novus Biologicals, Littleton, CO) according to the manufacturer's protocol. The optical density of antigen levels was measured at 450 nm using a microplate spectrophotometer. The samples were run in triplicate, and the experiments were repeated at least three times.
Total RNA was extracted from the cell pellets by the RNeasy Mini kit (Cat #74104, QIAGEN, Germantown, MD), and 1 μg RNA was converted to cDNA using the Applied Biosystems High-Capacity cDNA Reverse Transcription Kit (Cat #43-688-14, ThermoFisher, Waltham, MA). Quantitative real-time PCR (real-time-qPCR) was performed using iTaq Universal SYBR Green Supermix (Cat #1725124, Bio-Rad, Hercules, CA). The PCR primers were: HBV mRNA forward, 5′-[…]-3′ (SEQ ID NO: 52), reverse, 5′-[…]-3′ (SEQ ID NO: 53); HBV pgRNA forward 5′-[…]-3′ (SEQ ID NO: 54), reverse 5′-[…]-3′ (SEQ ID NO: 55); and GAPDH forward 5′-[…]-3′ (SEQ ID NO: 56), reverse 5′-[…]-3′ (SEQ ID NO: 57). The gene expression levels were determined by the […] method and values were normalized to GAPDH expression as an internal control.
Total and protein-free HBV DNAs were extracted from whole cell lysate using the Hirt DNA method according to a previously published protocol. For HBV cccDNA analysis, the protein-free DNA was treated with 10 units of T5 exonuclease (NEB) at 37° C. for 30 min, followed by 95° C. for 5 min, and diluted 4-fold with nuclease-free water. Next, the cccDNA was cleaned with a DNA clean and concentrator kit (ZYMO Research, Irvine, CA) and used for PCR. HBV total DNA and cccDNA were analyzed by real-time PCR using a TaqMan PCR assay. The primers and probe used to amplify HBV total DNA were: HBV total DNA forward: 5′-[…]-3′ (SEQ ID NO: 58), reverse 5′-[…]-3′ (SEQ ID NO: 59), and internal probe: 5′-FAM-[…]-TAMRA-3′ (SEQ ID NO: 60). The primers and probe used to amplify HBV cccDNA (Genotype D, subtype ayw) were: forward: 5′-[…]-3′ (SEQ ID NO: 61), reverse 5′-[…]-3′ (SEQ ID NO: 62), and internal probe 5′-FAM-[…]-TAMRA-3′ (SEQ ID NO: 63). The PCR reactions were performed in 20 μl volumes and contained 2 μl DNA. The PCR conditions were: 95° C. for 10 min, followed by 45 cycles of 95° C. for 15 s and 64° C. for 30 s. The DNA levels were determined by the […] method and values were normalized to the control group. […]

Data set [2] has as its system HepDE19 cells. Kind of data set: Cytotoxicity, cell viability by MTT assay. It is filed as cell-based, human. The conditions noted are these: for cell viability in the presence of TNFα: Tet-free medium, TNFα (10 ng/ml); for cell viability (MTT): with or without Tet-free medium, 24 h, vs non-transfected (NT) control. The protocol: The MTT assay was used to determine metabolic activity and cell viability as an indicator of cellular cytotoxicity. Twenty-four hours after gRNA/Cas9 transfection, the cells were cultured in a Tet-free medium for an additional 24 h. For measuring cell proliferation, the cells were cultured in the Tet-free medium for an additional 3 days in a 96-well plate. The culture medium (100 μl) was changed and MTT reagent (0.5 mg/ml) was added at 37° C. for 4 h, followed by measuring the absorbance at 550-690 nm using a spectrophotometer (BioTek SYNERGY H1).
NAD (P) H-dependent cellular oxidoreductase enzymes reduce the tetrazolium MTT (3-(4,5-Dimethylthiazol 2-yl)-2,5-diphenyltetrazolium bromide) salt into insoluble formazan, which indicates the overall survival and metabolic activity of a living cell. To determine whether gRNA5/Cas9 or gRNA9/Cas9 exert any cytotoxic effects on HepDE19 cells, cell viability after transfection with gRNA5 or gRNA9 in the presence or absence of Tet-free medium (for HBV induction) for 24 h was measured using the MTT assay. […] Since HBV itself is not a direct cytopathic pathogen but can induce cell injury via immune-mediated mechanisms, the viability of transfected and non-transfected HepDE19 cells cultured in a Tet-free medium in the presence of TNFα, which can induce apoptotic cell death, was observed. […] Moreover, flow cytometry analysis was performed to detect the cell surface apoptotic marker annexin V and the loss of the plasma membrane integrity (measured by up taking 7-ADD). Cell apoptosis was then evaluated by measuring the Av and 7ADD levels in gRNA-transfected HepDE19 cells with or without Tet-free medium. No significant differences in cell apoptosis among the different treatments were observed (FIG. 16C). Finally, the proliferative ability of HepDE19 cells with or without gRNA transfection for 3 days was assessed, using the MTT assay. No significant differences in cell proliferation were found (FIG. 16D).
For orientation: Tetrazolium dyes change colour on reduction, which living cells bring about.

Regarding GGTCTCCATGCGACGTGCAGNGG [gRNA9], in data set [1], the “HBV mRNA / HBV RNA level (RNAscope)” value is “significant decreases”, the cccDNA level result is “significant decreases”, the pgRNA level result is “significant decreases” and the “total HBV DNA level” value is recorded as “significant decreases”. In data set [1], the HBeAg level result is reported as “significant decreases” and the HBsAg level result is listed as “significant decreases”. For the same sequence, in data set [2], the “cytotoxicity to hepatocytes (overall conclusion)” value was “not cytotoxic”, the “cell viability in the presence of TNFα” value is listed as “No cytotoxic effects” and the “cell viability (MTT)” value was “no significant differences in the viability”. In addition, the “cell viability (MTT)” value in data set [2] (listed as gRNA9/Cas9) was “no differences in the viability”.

Consider “GTTATCGCTGGATGTGTCTGNGG (guide GUUAUCGCUGGAUGUGUCUGNGG; complexed with Cas9 protein, chemistry not fully specified) [gRNA5, tested as synthetic gRNA/Cas9 RNP]”, for which, in data set [1], the “HBV mRNA / HBV RNA level (RNAscope)” value is on record as “significant decreases”, the cccDNA level entry is listed as “significant decreases”, the pgRNA level result was “significant decreases” and the “total HBV DNA level” value is “significant decreases”. In data set [1], the HBeAg level result was “significant decreases” and the HBsAg level result was “significant decreases”. Moreover, in data set [2], the “cytotoxicity to hepatocytes (overall conclusion)” value is reported as “not cytotoxic”, the “cell viability in the presence of TNFα” value is “No cytotoxic effects” and the “cell viability (MTT)” value is listed as “no significant differences in the viability”. In data set [2] (listed as gRNA5/Cas9), the “cell viability (MTT)” value is on record as “no differences in the viability”.
